Patent US20230190887A1, “TARGETING G3BP AGGREGATION TO PREVENT NEURODEGENERATION” (priority 2019, published 2023)

Columns and labels:
[1] = system: G3BP1 aggregates in midbrain neurons; assay: Endogenous G3BP1 aggregates in MPP+-treated midbrain neurons; assay type: cell-based, rat; conditions: MPP+ plus peptide
Description: Given that the G3BP1 190-208 peptide prevents degeneration induced by treatment with neurotoxins such as MPP+ and Aβ oligomer and decreases G3BP1 aggregates formed due MPP+ and Aβ treatment.
(A) Size of endogenous G3BP1 aggregates per 100 μm of neurite is shown as indicated bins from midbrain cultures under control conditions and after treatment with MPP+alone or with 190-208 G3BP1 or 168-189 peptides. (B) Size distribution of endogenous G3BP1 aggregates per 100 μm of neurite is shown from cortical neurons treated with 1 μM Aβpeptide or with […] 190-208 G3BP1 or 168-189 control peptide. Non-treated neurons were used as a control. […] (N≥90 over 3 cultures; by two-way ANOVA with Tukey HSD post-hoc).

[2] = system: DRG neurons; assay: Axon growth in dissociated DRG cultures; assay type: cell-based, rat
Method: Cell culture. For primary neuronal cultures, L4-5 DRG were harvested in Hybernate-A medium (BrainBits) and then dissociated as described. After centrifugation and washing in DMEM/F12 (Life Technologies), cells were resuspended in DMEM/F12, 1×N1 supplement (Sigma), 10% fetal bovine serum (Hyclone), and 10 μM cytosine arabinoside (Sigma). Dissociated DRGs were plated immediately on laminin/poly-L-lysine-coated coverslips or transfected (see below) and then plated on coated coverslips.
[…] Neurite outgrowth was assessed 24 h after addition of peptides. For the cortical cultures, 10 μM peptide was applied to the axonal compartment at 3 d in vitro (DIV) and axonal growth was assessed at 6 DIV. For iMotor neurons, 20 μM peptides were immediately added and neurite growth was assessed 24 h later.
For neurite outgrowth, images from 60 h DRG cultures were analyzed for neurite outgrowth using WIS-Neuromath. Axon morphology was visualized using GFP and/or NF immunofluorescence as described. Differentiated hiPSC neuron image acquisition and neurite length quantification was performed using Arrayscan XTI (Thermo Fisher).

[3] = system: C9ORF72 iPS-MN axons; assay: OPP labeling of local protein synthesis in iPS-MN axons; assay type: cell-based, human; conditions: axonal-exclusive application of 20 μM peptide
Description: Formation of G3BP1-positive RNP condensates is strongly associated with repressed RNA translation, see Sahoo, P. K. et al. A Ca^2+ dependent switch activates axonal casein kinase 2α translation and drives G3BP1 granule disassembly for axon regeneration. Curr. Biol. 30, 4882-4895.e6 (2020), and altered mRNA transport, see Liao, Y. C. et al. RNA granules hitchhike on lysosomes for long-distance transport, using Annexin All as a molecular tether. Cell 179, 147-164.e20 (2019), leading to reduced protein synthesis, see Sahoo, P. K. et al. Axonal G3BP1 stress granule protein limits axonal mRNA translation and nerve regeneration. Nat. Commun. 9, 1-14 (2018). […] By quantifying OPP puncta density within in vitro NMJs, we identified robust protein synthesis within control co-cultures, while protein synthesis in TDPΔNLS NMJs was severely impaired (FIG. 19 3k-l). […] Unpaired-t-test, two-sided ****p<0.0001. c Images and d-f quantification of NFH, pTDP-43 and G3BP1 and their colocalization in C9ORF72 iPS-MN axons either treated or not with G3BP1 peptide. Quantifications of G3BP1 particle density (d), G3BP1-pTDP-43 coloc-particle density (e) and G3BP1-pTDP-43 coloc-particle size (f) from C9ORF72 and control iPS-MN axons, either treated or not with G3BP1 peptide. […] One-way-ANOVA with Holm-Sidak correction. […], ****p<0.0001. i Images and j quantification of OPP puncta density in control or ΔNLS MN axons. […]

[4] = 10 μM Tat-fused peptide added to DRG cultures immediately after plating

YGNKKNNNQNNN-VVEPEPEPEPEPEPEPVSE [G3BP1 190-208 peptide]
size of endogenous G3BP1 aggregates per 100 μm of neurite [1]: decrease in the size of G3BP1 aggregates
size of endogenous G3BP1 aggregates per 100 μm of neurite ([1]; listed as 190-208 G3BP1 peptide): disassembly of G3BP1 granules
axon length [2, 4]: increased axon length
number of neurites per neuron [2, 4]: increased the number of neurites per neuron
axon length ([2]; delayed application (peptide added at 12 h, assessed at 36 h), naive and preinjured DRG neurons): significantly increased axon length
OPP puncta density (axonal translation) [3]: reversed
